Test results published in ChEMBL document CHEMBL1201862, “PubChem BioAssay data set” (2004).
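Exposure lasted 48 hours, with cells grown in 96-well plates and compounds tested at five concentrations. GI50 marks 50% less growth.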 Calls of active or inactive are those of the source. Rule as the data show it: active = GI50 up to about 1.1 µM and inactive = higher.

Experiments:
Experiment in all cases: growth of human tumour cells (NCI), 48 h
SK-MEL-5 = test system: SK-MEL-5
Malme-3M = test system: Malme-3M
COLO 205 = test system: COLO 205
HCC 2998 = test system: HCC 2998
T47D = test system: T47D
ACHN = test system: ACHN
LOX IMVI = test system: LOX IMVI
M14 = test system: M14
OVCAR-8 = test system: OVCAR-8
SNB-19 = test system: SNB-19
EKVX = test system: EKVX
OVCAR-4 = test system: OVCAR-4
UO-31 = test system: UO-31
HCT-15 = test system: HCT-15
SK-OV-3 = test system: SK-OV-3
SNB-75 = test system: SNB-75
SK-MEL-2 = test system: SK-MEL-2
NCI-H460 = test system: NCI-H460
HT-29 = test system: HT-29
HL-60 = test system: HL-60

Row | SMILES | GI50 (SK-MEL-5) | GI50 (Malme-3M) | GI50 (COLO 205) | GI50 (HCC 2998) | GI50 (T47D) | GI50 (ACHN) | GI50 (LOX IMVI) | GI50 (M14) | GI50 (OVCAR-8) | GI50 (SNB-19) | GI50 (EKVX) | GI50 (OVCAR-4) | GI50 (UO-31) | GI50 (HCT-15) [µM] | GI50 (SK-OV-3) | GI50 (SNB-75) | GI50 (SK-MEL-2) | GI50 (NCI-H460) | GI50 (HT-29) | GI50 (HL-60)
1 | CC(C)(C)c1ccc(CN2CCN(C(c3ccccc3)c3ccc(Cl)cc3)CC2)cc1 (stereo unspecified) | 27 µM (inactive) | 45.6 µM (inactive) | 38.8 µM (inactive) | 31 µM (inactive) | 24.2 µM (inactive) | 68.5 µM (inactive) | 34.4 µM (inactive) | 33.4 µM (inactive) | > 100 µM (inactive) | > 100 µM (inactive) | 32.1 µM (inactive) | > 100 µM (inactive) | 63.5 µM (inactive) | 29.9 | > 100 µM (inactive) | > 100 µM (inactive) | 31 µM (inactive) | 95.1 µM (inactive) | 20.3 µM (inactive) | –
2 | O=C1c2cscc2C(=O)c2c(OCc3ccccc3)ccc(OCc3ccccc3)c21 | > 100 µM (inactive) | > 100 µM (inactive) | > 100 µM (inactive) | 53.1 µM (inactive) | > 100 µM (inactive) | > 100 µM (inactive) | 97.9 µM (inactive) | > 100 µM (inactive) | > 100 µM (inactive) | > 100 µM (inactive) | > 100 µM (inactive) | > 100 µM (inactive) | 62.5 µM (inactive) | – | > 100 µM (inactive) | 56 µM (inactive) | – | > 100 µM (inactive) | 58.1 µM (inactive) | 96.4 µM (inactive)
3 | O=c1ccn(C2OC(CO)C(P(=O)(O)O)C2O)c(=O)[nH]1 (stereo unspecified) | > 100 µM (inactive) | > 100 µM (inactive) | – | > 100 µM (inactive) | > 100 µM (inactive) | > 100 µM (inactive) | > 100 µM (inactive) | > 100 µM (inactive) | > 100 µM (inactive) | > 100 µM (inactive) | > 100 µM (inactive) | > 100 µM (inactive) | > 100 µM (inactive) | > 100 | – | > 100 µM (inactive) | > 100 µM (inactive) | > 100 µM (inactive) | > 100 µM (inactive) | > 100 µM (inactive)
4 | CC(=O)CC1(CBr)Nc2ccc([N+](=O)[O-])cc2NC1=O (stereo unspecified) | > 100 µM (inactive) | 92.3 µM (inactive) | > 100 µM (inactive) | > 100 µM (inactive) | 42.9 µM (inactive) | > 100 µM (inactive) | 52.1 µM (inactive) | > 100 µM (inactive) | > 100 µM (inactive) | > 100 µM (inactive) | > 100 µM (inactive) | 81.8 µM (inactive) | 61.9 µM (inactive) | 82.6 | > 100 µM (inactive) | > 100 µM (inactive) | > 100 µM (inactive) | > 100 µM (inactive) | 90.4 µM (inactive) | –
5 | CC(=O)Oc1cc(Cl)c(C)c2c1[C@H]1CC[C@]3(C)[C@@H](OC(C)=O)CC[C@H]3[C@@H]1CC2 | > 100 µM (inactive) | > 100 µM (inactive) | – | > 100 µM (inactive) | 83.2 µM (inactive) | > 100 µM (inactive) | > 100 µM (inactive) | > 100 µM (inactive) | > 100 µM (inactive) | > 100 µM (inactive) | > 100 µM (inactive) | – | > 100 µM (inactive) | 50.4 | – | > 100 µM (inactive) | – | > 100 µM (inactive) | 61.4 µM (inactive) | 53.6 µM (inactive)
6 | COc1cc(/C=N\O)nc(-c2ccccn2)c1 | 0.298 µM (active) | 0.741 µM (active) | 0.188 µM (active) | 46.8 µM (inactive) | 1.18 µM (inactive) | 0.0923 µM (active) | 0.221 µM (active) | 0.259 µM (active) | 0.2 µM (active) | 1.11 µM (active) | 0.195 µM (active) | 0.504 µM (active) | 0.161 µM (active) | 0.092 | 0.45 µM (active) | 1.28 µM (inactive) | – | 0.227 µM (active) | 0.569 µM (active) | 0.124 µM (active)
7 | O=C1c2[nH]c3ccccc3c2CCN2CCCCC12 (stereo unspecified) | – | 25.6 µM (inactive) | 18.7 µM (inactive) | 17.2 µM (inactive) | 25.7 µM (inactive) | 21.9 µM (inactive) | 22.3 µM (inactive) | 17.9 µM (inactive) | 25.2 µM (inactive) | 24.9 µM (inactive) | 23.4 µM (inactive) | 27.5 µM (inactive) | – | 31.9 | 31.1 µM (inactive) | 28.5 µM (inactive) | 18.5 µM (inactive) | 26.6 µM (inactive) | 34.1 µM (inactive) | 1.8 µM (inactive)
8 | COc1ccc2c(c1)C(N)=C(c1ccccc1)C2=O | 49.1 µM (inactive) | > 100 µM (inactive) | > 100 µM (inactive) | 81.8 µM (inactive) | 32.5 µM (inactive) | 33.9 µM (inactive) | > 100 µM (inactive) | > 100 µM (inactive) | 34.4 µM (inactive) | 24.4 µM (inactive) | > 100 µM (inactive) | > 100 µM (inactive) | – | > 100 | 49 µM (inactive) | 12.6 µM (inactive) | > 100 µM (inactive) | > 100 µM (inactive) | > 100 µM (inactive) | > 100 µM (inactive)
9 | COc1ccc(/C=C2\C[C@H]3[C@@H]4CC=C5C[C@@H](OC(C)=O)CC[C@]5(C)[C@H]4CC[C@]3(C)C2=O)cc1OC | 10.6 µM (inactive) | 34.7 µM (inactive) | 24.3 µM (inactive) | 58.3 µM (inactive) | 35.7 µM (inactive) | 49.5 µM (inactive) | 42.9 µM (inactive) | 66.4 µM (inactive) | 40.6 µM (inactive) | 54.8 µM (inactive) | 15.7 µM (inactive) | 63.4 µM (inactive) | 12.2 µM (inactive) | 68.9 | – | > 100 µM (inactive) | 31.1 µM (inactive) | 33.9 µM (inactive) | 41.2 µM (inactive) | 16.7 µM (inactive)
10 | COc1ccc2[nH]c3c([N+](=O)[O-])ccc(NCCCN(C)C)c3/c(=N/CCCN(C)C)c2c1 | 1.9 µM (inactive) | 9.75 µM (inactive) | – | 1.24 µM (inactive) | > 10 µM (inactive) | – | 1.41 µM (inactive) | > 10 µM (inactive) | 0.893 µM (active) | – | 2.55 µM (inactive) | 0.914 µM (active) | – | 1.53 | 2.01 µM (inactive) | 1.84 µM (inactive) | – | – | 1.12 µM (inactive) | 1.77 µM (inactive)
11 | O=C1CC(=O)NC(NNS(=O)(=O)c2ccccc2)=N1 | > 100 µM (inactive) | > 100 µM (inactive) | > 100 µM (inactive) | > 100 µM (inactive) | > 100 µM (inactive) | > 100 µM (inactive) | – | > 100 µM (inactive) | > 100 µM (inactive) | > 100 µM (inactive) | – | > 100 µM (inactive) | > 100 µM (inactive) | > 100 | > 100 µM (inactive) | > 100 µM (inactive) | > 100 µM (inactive) | > 100 µM (inactive) | > 100 µM (inactive) | –
12 | O=C(O)CN(CC(=O)O)Cc1ccn(-c2cccc(-n3ccc(CN(CC(=O)O)CC(=O)O)n3)n2)n1 | > 100 µM (inactive) | > 100 µM (inactive) | > 100 µM (inactive) | > 100 µM (inactive) | > 100 µM (inactive) | > 100 µM (inactive) | – | > 100 µM (inactive) | > 100 µM (inactive) | > 100 µM (inactive) | > 100 µM (inactive) | – | 93.8 µM (inactive) | > 100 | > 100 µM (inactive) | > 100 µM (inactive) | > 100 µM (inactive) | > 100 µM (inactive) | > 100 µM (inactive) | < 0.01 µM (active)
13 | N#CCC(=O)Nn1c(CC#N)nnc1Cc1ccccc1 | > 100 µM (inactive) | > 100 µM (inactive) | – | > 100 µM (inactive) | > 100 µM (inactive) | > 100 µM (inactive) | – | > 100 µM (inactive) | > 100 µM (inactive) | > 100 µM (inactive) | – | – | > 100 µM (inactive) | > 100 | – | > 100 µM (inactive) | > 100 µM (inactive) | > 100 µM (inactive) | > 100 µM (inactive) | > 100 µM (inactive)
14 | CCOC(=O)C1C[C@H]2CO[C@H](c3ccccc3)N2C1=O (stereo partly specified) | > 100 µM (inactive) | > 100 µM (inactive) | > 100 µM (inactive) | 73.8 µM (inactive) | > 100 µM (inactive) | > 100 µM (inactive) | > 100 µM (inactive) | > 100 µM (inactive) | > 100 µM (inactive) | > 100 µM (inactive) | > 100 µM (inactive) | > 100 µM (inactive) | > 100 µM (inactive) | > 100 | – | > 100 µM (inactive) | > 100 µM (inactive) | > 100 µM (inactive) | > 100 µM (inactive) | –
15 | CC[C@H]1C=CCC[C@@]2(C[C@@H]3CC[C@@H]4[C@H](C(=O)OCCCCCCCCCCCCCCCC(=O)O)[C@]5(CCC[C@@H](C)O5)NC(=[N+]34)N2)O1 [CRAMBESCIDIN 657] | 0.104 µM (active) | 0.153 µM (active) | 0.139 µM (active) | 0.0973 µM (active) | 0.32 µM (active) | 0.175 µM (active) | 0.12 µM (active) | 0.1 µM (active) | 0.23 µM (active) | 0.365 µM (active) | 1.39 µM (inactive) | 0.157 µM (active) | 0.125 µM (active) | 0.525 | 5.38 µM (inactive) | – | 0.127 µM (active) | 0.188 µM (active) | 0.116 µM (active) | 0.151 µM (active)
